{"source": "paper PMC9322451", "about": "(Clinical Pharmacology in Drug Development, 2022)", "origin": "cited, not measured here", "tested_on": "organic anion transporting polypeptides", "set-up": "method as in unpublished data", "settings": "ref unpublished data, read-out: half maximal inhibitory concentration; cited from earlier work"}
{"smiles": "Cn1c(=O)oc2ccc(-c3ccc(C[C@@H](C#N)NC(=O)[C@@H]4CNCCCO4)cc3)cc21", "note": "[Brensocatib]", "values": [{"measurement": "IC50", "value": "> 11", "unit": "µM"}]}
